Measurements as given in patent US20060058320A1, “[1,2,4] Triazolo[1,5-c]pyrimidine derivatives” (KYOWA HAKKO KOGYO CO., LTD., priority 2002, published 2006).
Structures can show the parent of a compound that is named as a salt. Where two headings read alike, the source gives them in different places.

What was measured:
[1] = target: T1, adenosine A2A receptor (Rattus norvegicus, UniProt P30543); assay: Adenosine A2A receptor binding test (3H-CGS 21680 binding); details: for inhibition at 0.1 µM: read-out: A2A Receptor inhibition rate (%) at 10^−7 mol/L
T1 construct: from tissue; host or cells: rat corpus striatum membrane preparation
T1 sequence (P30543 whole entry): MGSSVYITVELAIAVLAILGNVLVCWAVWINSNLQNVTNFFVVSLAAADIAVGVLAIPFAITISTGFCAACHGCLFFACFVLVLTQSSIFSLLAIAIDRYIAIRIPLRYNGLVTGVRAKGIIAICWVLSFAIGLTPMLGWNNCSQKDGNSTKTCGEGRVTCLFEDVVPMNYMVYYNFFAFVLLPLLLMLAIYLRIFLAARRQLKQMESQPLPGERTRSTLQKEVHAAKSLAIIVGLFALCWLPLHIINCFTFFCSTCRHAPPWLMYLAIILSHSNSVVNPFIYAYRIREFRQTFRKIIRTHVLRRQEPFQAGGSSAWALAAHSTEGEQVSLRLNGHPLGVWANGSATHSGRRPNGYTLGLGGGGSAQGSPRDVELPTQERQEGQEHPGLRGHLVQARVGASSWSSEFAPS
Protocol: The test was carried out according to the method of Bruns et al. [Molecular Pharmacology, vol. 29, p.
Rat corpus striatum was suspended in an ice-cold 50 mmol/L tris(hydroxymethyl)aminomethane hydrochloride (referred to as “Tris HCl” hereinafter) buffer (pH 7.7) using a Polytron homogenizer (produced by Kinematica Co.). The suspension was centrifuged (50,000×g, 10 minutes), and the resulting precipitate was again suspended in the same amount of a 50 mmol/L Tris HCl buffer, followed by centrifugation under the same conditions. The resulting finalprecipitate was again suspended in a 50 mmol/L-Tris HCl buffer [containing 10 mmol/L of magnesium chloride and 0.02 unit/mg tissue of adenosine deaminase (produced by Sigma Co.)] so that the tissue concentration was 5 mg (wet weight)/mL.
The radioactivity on the filter was determined with a liquid scintillation counter (produced by Packard Instrument Co.).
In the equation, X represents Amount of binding in the presence of a medicament, Y represents Amount of nonspecific binding, and Z represents Amount of total binding.

[2] = system: CGS 21680-induced catalepsy; assay: Activity on CGS 21680-induced catalepsy; format: in vivo, mice; details: for inhibition in vivo at 10 mg/kg: Mus musculus, po, read-out: Remission ratio (%); for Total score: total catalepsy score of 10 mice (maximum 50 points; 40 points or less = positive), one hour after administration; for Number of animals showing remission: cases with catalepsy score of 4 points or less in 10 cases
Protocol: Parkinson's disease is a motor disorder based on degeneration and cell death of the nigrostriatal dopaminergic neurons. When CGS 21680 (adenosine A2A receptor agonist) is administered into the intracerebral ventricle, the inhibitory synaptic transmission of GABA in the medium sized spiny neurons in the corpus striatum is inhibited directly via the adenosine A2A receptor [Journal of Neuroscience, vol. 16, p. 605 (1996)]. Accordingly, it is concidered that the adenosine A2A receptor agonists positively regulate the output of the GABAergic neurons from the corpus striatum to the globus pallidus lateralis, and, as a result, catalepsy is induced by the administration of CGS 21680.
The test was carried out using ten 5-week age male ddY mice (22-25 g in body weight, Japan SLC) per group. CGS 21680 (produced by RBI Co) was dissolved in physiological saline (produced by Otsuka Pharmaceutical Co., Ltd.), and 10 μg/20 μL of the solution was injected into mouse intracerebral ventricle. Each test compound was used by suspending it in distilled water containing 0.3% of polyoxylene (20) sorbitan monooleate (referred to as “Tween 80” hereinafter) (produced by Otsuka Pharmaceutical Co., Ltd.). The suspension containing each test compound or a solution containing no test Compound (distilled water containing 0.3% of Tween 80; used as a control) was orally administered (0.1 mL per 10 g of mouse body weight) 30 minutes before the injection of CGS 21680 into the intracerebral ventricle. One hour after the administration of the each test compound, only forelimbs or only hindlimbs of each mouse were laid on a vertically arranged stand made of acryl and having a size of 4.5 cm in height and 1.0 cm in width to measure catalepsy symptoms. All of the test compounds were administered orally in a dose of 10 mg/kg.
The criteria of the catalepsy score are shown below.
The effect was decided by a total catalepsy score of 10 mice in one group (the maximum score: 50 points). When the total score was 40 points or less, the activity of the compounds was decided positive. The number of the animals showing remission of catalepsy was expressed by the number of cases showing a catalepsy score of 4 points or less in 10 cases. The catalepsy remission ratio was expressed as the percentage of the total score in the test compound-administered group to the total score in the control group.

[3] = from total score of test group and control group, 10 mg/kg orally
[4] = test compound 10^−7 mol/L, 3H-CGS 21680 binding, rat corpus striatum

SMILES	inhibition at 0.1 µM [1, 4] [%]	inhibition in vivo at 10 mg/kg [2, 3] [%]	Total score ([2]; 10 mg/kg orally)	other results
Nc1nc(-c2cccs2)cc2nc(-c3ccco3)nn12 [Compound 51, 5-Amino-2-(2-furyl)-7-(2-thienyl)[1,2,4]triazolo[1,5-c]-pyrimidine]	–	–	–	melting point: 232.2 to 232.3 °C; inhibition at 0.1 µM [1]: 68%
CN(Cc1ccc2c(c1)OCO2)C(=O)c1cc2nc(-c3ccco3)nn2c(N)n1 [Compound 107, 5-Amino-2-(2-furyl)[1,2,4]triazolo[1,5-c]pyrimidine-7-carboxylic acid [N-(1,3-benzodioxol-5-ylmethyl)-N-methyl]amide monohydrochloride]	71	90	5	–
Nc1nc(C(=O)N2CCC3CCCCC3C2)cc2nc(-c3ccco3)nn12 (stereo not drawn) [Compound 151, 5-Amino-2-(2-furyl)[1,2,4]triazolo[1,5-c]pyrimidin-7-yl cis-decahydroisoquinolyl ketone]	–	–	12	Number of animals showing remission ([2]; 10 mg/kg orally): 8; Remission ratio (%) [2, 3]: 74%; A2A Receptor inhibition rate (%) at 10^−7 mol/L [1, 4]: 71%
CC(C)N(Cc1ccn(C)c1)C(=O)c1cc2nc(-c3ccco3)nn2c(N)n1 [Compound 116, 5-Amino-2-(2-furyl)[1,2,4]triazolo[1,5-c]pyrimidine-7-carboxylic acid [N-isopropyl-N-(1-methylpyrrol-3-ylmethyl)]amide]	–	–	9	Number of animals showing remission ([2]; 10 mg/kg orally): 9; Remission ratio (%) [2, 3]: 82%; A2A Receptor inhibition rate (%) at 10^−7 mol/L [1, 4]: 62%
COCCN1CC=C(c2cc3nc(-c4ccco4)nn3c(N)n2)CC1 [Compound 73, 5-Amino-2-(2-furyl)-7-[1-(2-methoxyethyl)-1,2,3,6-tetra-hydropyridin-4-yl][1,2,4]triazolo[1,5-c]pyrimidine]	–	–	6	inhibition in vivo at 10 mg/kg [2]: 88%; inhibition at 0.1 µM [1]: 98%
Nc1nc(-c2cc3nc(-c4ccco4)nn3c(N)n2)cs1 [Compound 58, 5-Amino-7-(2-aminothiazol-4-yl)-2-(2-furyl)-[1,2,4]triazolo-[1,5-c]pyrimidine]	70	80	10	–
COc1ccc(CN(C)C(=O)c2cc3nc(-c4ccco4)nn3c(N)n2)cc1 [Compound 108, 5-Amino-2-(2-furyl)[1,2,4]triazolo[1,5-c]pyrimidine-7-caroboxylic acid [N-(4-methoxybenzyl)-N-methyl]amide monohydrochloride]	65	96	2	–
Nc1nc(C(=O)N2CCCCC2)cc2nc(-c3ccco3)nn12 [Compound 142, 5-Amino-2-(2-furyl)[1,2,4]triazolo[1,5-c]pyrimidin-7-yl piperidino ketone]	71	–	–	–
N#CCCN(Cc1cccnc1)C(=O)c1cc2nc(-c3ccco3)nn2c(N)n1 [Compound 103, 5-Amino-2-(2-furyl)[1,2,4]triazolo[1,5-c]pyrimidine-7-carboxylic acid [N-(2-cyanoethyl)-N-(3-pyridylmethyl)]amide]	54	–	–	–
Nc1nc(C#CC2(O)CCCC2)cc2nc(-c3ccco3)nn12 [Compound 69, 5-Amino-2-(2-furyl)-7-[2-(1-hydroxycyclopentyl)ethynyl][1,2,4]triazolo[1,5-c]pyrimidine]	78	96	2	–
Nc1nc(CN2CCN(CC3CC3)CC2)cc2nc(-c3ccco3)nn12 [Compound 50, 5-Amino-7-[4-(cyclopropylmethyl)piperazin-1-ylmethyl]-2-(2-furyl)[1,2,4]triazolo[1,5-c]pyrimidine dihydrochloride]	65	–	–	–
Nc1nc(C(=O)N2CCCCCC2)cc2nc(-c3ccco3)nn12 [Compound 154, 5-Amino-2-(2-furyl)[1,2,4]triazolo[1,5-c]pyrimidin-7-yl perhydroazepinyl ketone]	–	–	16	Number of animals showing remission ([2]; 10 mg/kg orally): 7; Remission ratio (%) [2, 3]: 66%; A2A Receptor inhibition rate (%) at 10^−7 mol/L [1, 4]: 56%
COCCN1CCN(Cc2cc3nc(-c4ccco4)nn3c(N)n2)CC1 [Compound 49, 5-Amino-2-(2-furyl)-7-[4-(2-methoxyethyl)piperazin-1-yl-methyl][1,2,4]triazolo[1,5-c]pyrimidine dihydrochloride]	89	–	4	inhibition in vivo at 10 mg/kg [2]: 92%
CC1CCN(C(=O)c2cc3nc(-c4ccco4)nn3c(N)n2)CC1 [Compound 143, 5-Amino-2-(2-furyl)[1,2,4]triazolo[1,5-c]pyrimidin-7-yl 4-methylpiperidino ketone]	70	90	5	–
COc1ccc(CN(C)C(=O)c2cc3nc(-c4ccco4)nn3c(N)n2)cn1 [Compound 131, 5-Amino-2-(2-furyl)[1,2,4]triazolo[1,5-c]pyrimidine-7-carboxylic acid [N-methyl-N-(6-methoxypyridin-3-ylmethyl)]-amide]	51	88	6	–

More lines, main results first:

inhibition at 0.1 µM [1, 4] [%]	SMILES	inhibition in vivo at 10 mg/kg [2, 3] [%]	Total score ([2]; 10 mg/kg orally)	other results
74	CN(Cc1ccccc1Cl)C(=O)c1cc2nc(-c3ccco3)nn2c(N)n1 [Compound 122, 5-Amino-2-(2-furyl)[1,2,4]triazolo[1,5-c]pyrimidine-7-carboxylic acid [N-(2-chlorobenzyl)-N-methyl]amide monohydrochloride]	80	10	–
69	CCN(Cc1ccccc1)C(=O)c1cc2nc(-c3ccco3)nn2c(N)n1 [Compound 99, 5-Amino-2-(2-furyl)[1,2,4]triazolo[1,5-c]pyrimidine-7-carboxylic acid (N-benzyl-N-ethyl)amide]	–	–	–
61	CN(Cc1cccc(F)c1)C(=O)c1cc2nc(-c3ccco3)nn2c(N)n1 [Compound 120, 5-Amino-2-(2-furyl)[1,2,4]triazolo[1,5-c]pyrimidine-7-carboxylic acid [N-(3-fluorobenzyl)-N-methyl]amide monohydrochloride]	–	–	–
66	CN(Cc1ccnc2ccccc12)C(=O)c1cc2nc(-c3ccco3)nn2c(N)n1 [Compound 113, 5-Amino-2-(2-furyl)[1,2,4]triazolo[1,5-c]pyrimidine-7-carboxylic acid [N-methyl-N-(4-quinolylmethyl)]amide]	76	12	–
58	Nc1nc(C(=O)c2ccc(F)cc2)cc2nc(-c3ccco3)nn12 [Compound 40, 5-Amino-7-(4-fluorobenzoyl)-2-(2-furyl)[1,2,4]triazolo-[1,5-c]pyrimidine]	94	3	–
56	Nc1nc(CNCCc2ccccn2)cc2nc(-c3ccco3)nn12 [Compound 44, 5-Amino-7-[2-(2-pyridyl)ethylaminomethyl]-2-(2-furyl)-[1,2,4]triazolo[1,5-c]pyrimidine dihydrochloride]	–	–	–
83	CN(Cc1ccco1)C(=O)c1cc2nc(-c3ccco3)nn2c(N)n1 [Compound 101, 5-Amino-2-(2-furyl)[1,2,4]triazolo[1,5-c]pyrimidine-7-carboxylic acid [N-(2-furylmethyl)-N-methyl]amide]	–	–	–
64	CC(=O)NCCNCc1ccccc1-c1cc2nc(-c3ccco3)nn2c(N)n1 [Compound 7, 5-Amino-7-{2-[2-(N-acetylamino)ethylaminomethyl]phenyl}-2-(2-furyl)[1,2,4]triazolo[1,5-c]pyrimidine monohydrochloride]	–	–	–
